# Results reported in patent US20060029684A1, “Synergistic treatment of DNA viral infections” (Henderson Morley Research and Development Limited, priority 1999, published 2006).
# Like-named read-outs stand apart in the source and are kept apart here.
# What was measured:
# [1] = system: Type 2 herpes simplex strain 3345; test: Herpes simplex virus bioassay in Vero cells, inhibition of hsv2 (Example 2); format: cell-based; conditions: Human alphaherpesvirus 2, Vero
# Protocol: . Culture and assay methods follow those described by Lennette and Schmidt (1979) for herpes simplex virus and Vero cells with minor modifications.
# Type 1 herpes simplex strain HFEM is a derivative of the Rockerfeller strain HF (Wildy 1955), and Type 2 herpes simplex strain 3345, a penile isolate (Skinner et al 1977) were used as prototype strains. These prototypes were stored at −80° C. until needed.
# African Green Monkey kidney cells (vero) were obtained from the National Institute of Biological Standards and Control UK and were used as the only cell line for all experiments in this example.
# Cells and viruses were maintained on Glasgows modified medium supplemented with 10% foetal bovine serum.
# [2] = system: type 2 herpes simplex virus strain 3345; test: Inhibition of HSV2 replication in infected African green monkey kidney cells (Example 1, Table 1); format: cell-based; conditions: for inhibition of virus replication: Lithium 0 mN
# Excerpt: Compositions were applied to African green monkey kidney and […] cells infected with type 2 herpes simplex virus strains 3345 and 180 at low, intermediate and high multiplicities of infection. MOI inhibition of virus replication was scored as follows: […]
smiles,measurement,setting,value
"NS(=O)(=O)c1cc(C(=O)O)c(NCc2ccco2)cc1Cl [Frusemide, 4-chloro-N-furfuryl-5-sulfamoylanthranilic acid]",inhibition at 1000 µg/mL,"[1]; read-out: Inhibition of hsv2, Effect of frusemide alone, Multiplicity of infection High, frusemide (1 mg/ml)",0%
same,inhibition at 1000 µg/mL,"[1]; read-out: Inhibition of hsv2, Effect of frusemide alone, Multiplicity of infection Low, frusemide (1 mg/ml)",40%
same,inhibition at 1000 µg/mL,"[1]; read-out: Inhibition of hsv2, Effect of frusemide alone, Multiplicity of infection Medium, frusemide (1 mg/ml)",40%
same,inhibition of virus replication,"[2]; HIGH MOI HSV2, Frusemide 0.5 mg/ml",− (No inhibition)
same,inhibition of virus replication,"[2]; HIGH MOI HSV2, Frusemide 1.0 mg/ml",− (No inhibition)
same,inhibition of virus replication,"[2]; HIGH MOI HSV2, Frusemide 2.0 mg/ml",− (No inhibition)
same,inhibition at 500 µg/mL,[2]; Human alphaherpesvirus 2,0%
same,inhibition at 1000 µg/mL,[2]; Human alphaherpesvirus 2,0%
same,inhibition at 2000 µg/mL,[2]; Human alphaherpesvirus 2,0%
same,inhibition of virus replication,"[2]; LOW MOI HSV2, Frusemide 0.5 mg/ml",− (No inhibition)
same,inhibition of virus replication,"[2]; LOW MOI HSV2, Frusemide 1.0 mg/ml",− (No inhibition)
same,inhibition of virus replication,"[2]; LOW MOI HSV2, Frusemide 2.0 mg/ml",− (No inhibition)
same,inhibition of hsv2 replication,"[2]; frusemide 2 mg/ml, all multiplicities of infection",no inhibition
